Source: ChEMBL document CHEMBL1275338, “Design, synthesis and bioevaluation of dihydropyrazolo[3,4-b]pyridine and benzo[4,5]imidazo[1,2-a]pyrimidine compounds as dual KSP and Aurora-A kinase inhibitors for anti-cancer agents” (Bioorg Med Chem, 2010)
pIC50: −log10 of the molar value.

How the values were obtained:
[1] = biological target: T1, Kinesin-like protein KIF11 (Homo sapiens, UniProt P52732); assay: Inhibition of human Eg5 motor domain (residues 2-386) ATPase activity expressed in Escherichia coli assessed as release of inorganic phosphate after 30 mins
T1 sequence (P52732 whole entry): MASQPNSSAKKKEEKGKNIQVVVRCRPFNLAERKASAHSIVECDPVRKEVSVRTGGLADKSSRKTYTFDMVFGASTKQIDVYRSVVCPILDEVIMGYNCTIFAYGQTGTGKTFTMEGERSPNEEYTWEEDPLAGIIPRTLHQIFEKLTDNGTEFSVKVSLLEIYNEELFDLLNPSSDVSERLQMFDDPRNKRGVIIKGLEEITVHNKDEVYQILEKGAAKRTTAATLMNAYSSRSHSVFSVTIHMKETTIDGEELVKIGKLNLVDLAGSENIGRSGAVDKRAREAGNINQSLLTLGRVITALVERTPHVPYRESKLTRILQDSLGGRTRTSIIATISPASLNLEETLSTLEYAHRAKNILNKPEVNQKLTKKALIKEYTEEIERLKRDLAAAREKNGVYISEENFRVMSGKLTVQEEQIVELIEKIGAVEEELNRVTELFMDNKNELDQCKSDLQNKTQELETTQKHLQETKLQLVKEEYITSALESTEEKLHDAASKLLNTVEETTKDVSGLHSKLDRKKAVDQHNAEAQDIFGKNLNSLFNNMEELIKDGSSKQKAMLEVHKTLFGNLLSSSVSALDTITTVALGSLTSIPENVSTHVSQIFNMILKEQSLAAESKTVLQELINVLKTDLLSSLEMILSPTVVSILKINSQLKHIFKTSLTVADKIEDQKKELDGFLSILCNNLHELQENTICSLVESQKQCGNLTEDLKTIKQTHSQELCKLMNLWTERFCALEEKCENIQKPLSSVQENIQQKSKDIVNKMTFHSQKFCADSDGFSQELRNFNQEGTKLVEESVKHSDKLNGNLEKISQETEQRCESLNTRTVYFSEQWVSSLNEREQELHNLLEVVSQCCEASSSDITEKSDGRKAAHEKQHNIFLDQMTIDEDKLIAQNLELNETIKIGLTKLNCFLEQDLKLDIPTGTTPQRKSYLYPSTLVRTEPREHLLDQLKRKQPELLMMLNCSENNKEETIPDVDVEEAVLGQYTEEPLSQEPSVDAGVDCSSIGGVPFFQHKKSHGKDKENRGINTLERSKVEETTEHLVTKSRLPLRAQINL

A2780 = assay: cells; conditions: Homo sapiens, A2780, 72 h
Description: Cytotoxicity against human A2780 cells after 72 hrs by MTT assay

HepG2 = assay: cells; conditions: Homo sapiens, HepG2, 72 h
Description: Cytotoxicity against human HepG2 cells after 72 hrs by MTT assay

Aurora kinase A = biological target: T2, Aurora kinase A (Homo sapiens, UniProt O14965); assay: Inhibition of human purified recombinant aurora-A kinase
T2 sequence (O14965 whole entry): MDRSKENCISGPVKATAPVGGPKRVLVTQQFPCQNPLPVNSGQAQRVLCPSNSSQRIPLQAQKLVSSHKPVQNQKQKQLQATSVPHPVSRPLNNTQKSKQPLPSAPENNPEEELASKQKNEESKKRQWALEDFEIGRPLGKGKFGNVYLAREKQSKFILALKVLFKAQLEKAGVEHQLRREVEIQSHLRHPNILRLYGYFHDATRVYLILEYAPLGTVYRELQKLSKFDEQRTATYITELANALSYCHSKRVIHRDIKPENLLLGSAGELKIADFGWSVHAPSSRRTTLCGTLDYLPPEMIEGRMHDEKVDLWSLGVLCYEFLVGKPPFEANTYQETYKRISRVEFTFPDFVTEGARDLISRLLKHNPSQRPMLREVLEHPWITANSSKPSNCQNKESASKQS

HCT-116 [2] = assay: cells; conditions: Homo sapiens, HCT-116, 72 h
HCT-116 [3] = assay: Ratio of CPUYL064 IC50 to compound IC50 for human HCT116 cells

SMILES | pIC50 [1] | pIC50 (A2780) | pIC50 (HepG2) | pIC50 (Aurora kinase A) | pIC50 (HCT-116 [2]) | Ratio IC50 (HCT-116 [3])
CC1=C(C(=O)Nc2ccc(F)c(Cl)c2)C(c2ccccc2)c2c[nH]nc2N1 (configuration not stated) | 6.77 |  |  |  |  | 
CC1=C(C(=O)Nc2ccc(F)cc2)C(c2ccccc2)c2c[nH]nc2N1 (configuration not stated) | 6.85 |  |  |  |  | 
COc1ccc(NC(=O)C2=C(C)Nc3n[nH]cc3C2c2cccs2)cc1 (configuration not stated) | 8.60 |  |  |  |  | 
CC1=C(C(=O)Nc2ccc([N+](=O)[O-])cc2)C(c2cccs2)c2c[nH]nc2N1 (configuration not stated) | 6.09 |  |  |  |  | 
CC1=C(C(=O)Nc2ccc(C(F)(F)F)cc2)C(c2cccs2)c2c[nH]nc2N1 (configuration not stated) | 6.49 |  |  |  |  | 
COc1ccc(NC(=O)C2=C(C)Nc3n[nH]cc3C2c2ccco2)cc1 (configuration not stated) | 8.96 |  |  |  |  | 
CC1=C(C(=O)Nc2ccc([N+](=O)[O-])cc2)C(c2ccco2)c2c[nH]nc2N1 (configuration not stated) | 5.56 |  |  |  |  | 
CC1=C(C(=O)Nc2ccc(C(F)(F)F)cc2)C(c2ccco2)c2c[nH]nc2N1 (configuration not stated) | 5.97 |  |  |  |  | 
CC1=C(C(=O)Nc2ccc(F)c(Cl)c2)C(c2ccco2)c2c[nH]nc2N1 (configuration not stated) | 6.40 |  |  |  |  | 
CC1=C(C(=O)Nc2ccc(F)cc2)C(c2ccco2)c2c[nH]nc2N1 (configuration not stated) | 4.98 |  |  |  |  | 
COc1ccc(NC(=O)C2=C(C)Nc3nc4ccccc4n3C2c2ccco2)cc1 (configuration not stated) | 5.61 | 5.03 | 5.30 | 5.12 | 5.06 | 
CC1=C(C(=O)Nc2ccc([N+](=O)[O-])cc2)C(c2ccco2)n2c(nc3ccccc32)N1 (configuration not stated) | 4.68 | 5.52 | 4.87 | 5.52 | 4.94 | 
CC1=C(C(=O)Nc2ccc(C(F)(F)F)cc2)C(c2ccco2)n2c(nc3ccccc32)N1 (configuration not stated) | 5.48 |  |  | 5.88 | < 4.30 | 
CC1=C(C(=O)Nc2ccc(F)c(Cl)c2)C(c2ccco2)n2c(nc3ccccc32)N1 (configuration not stated) | 6.02 | < 4.30 | 4.59 | 5.24 | 4.96 | 
CC1=C(C(=O)Nc2ccc(F)cc2)C(c2ccco2)n2c(nc3ccccc32)N1 (configuration not stated) | 5.25 | < 4.30 | 5.13 | 5.21 | 5.30 | 2.5
CC1=C(C(=O)Nc2ccc(Cl)cc2)C(c2ccccc2)C2=C(CC(C)(C)CC2=O)N1 (configuration not stated) | 6.74 |  |  |  |  | 
CC1=C(C(=O)Nc2ccc(F)c(Cl)c2)C(c2cccs2)c2c[nH]nc2N1 (configuration not stated) | 6.36 |  |  |  |  | 
COc1ccc(NC(=O)C2=C(C)Nc3n[nH]cc3C2c2ccccc2)cc1 (configuration not stated) | 5.55 |  |  |  |  | 
CC1=C(C(=O)Nc2ccc([N+](=O)[O-])cc2)C(c2ccccc2)c2c[nH]nc2N1 (configuration not stated) | 6.70 |  |  |  |  | 
CC1=C(C(=O)Nc2ccc(C(F)(F)F)cc2)C(c2ccccc2)c2c[nH]nc2N1 (configuration not stated) | 6.40 |  |  |  |  | 
CN(C)c1ccc(-c2nc3cc(Cl)cnc3[nH]2)cc1 | 4.40 | 5.37 | 5.23 | 5.30 | 5.33 | 
CCC(c1nc2cc(Cl)ccc2c(=O)n1Cc1ccccc1)N(CCCN(C)C)C(=O)c1ccc(Br)cc1 (configuration not stated) [CK0106023] | 7.54 | 5.52 | 5.68 | < 4.30 | 6.03 | 
CCOC(=O)C1=C(C)NC(=S)NC1c1cccc(O)c1 (configuration not stated) [MONASTROL] | 5.26 |  |  | < 4.30 | < 4.30 | 
